Experimental findings from patent publication US5849736A, “Isoxazoline and isoxazole fibrinogen receptor antagonists” (The DuPont Merck Pharmaceutical Company, priority 1995, dated 1998) are described below.

Structures can show the parent of a compound that is named as a salt. A value given as a limit tells only on which side of the number the result lay.

The subject of one experiment is platelet aggregation in human platelet rich plasma (PRP). The experiment is described as follows: Platelet Aggregation Assay (platelet rich plasma, with or without esterase pretreatment). It is filed as cell-based. The conditions noted are these: Platelet, preincubated with 100 IU/mL porcine liver esterase 2 hours at 37° C., 100 μM ADP, read-out: Platelet Aggregation Assay IC50 (with esterase). As to the method: Venous blood was obtained from the arm of a healthy human donor who was drug-free and aspirin-free for at least two weeks prior to blood collection. Blood was collected into 10 mL citrated Vacutainer tubes. The blood was centrifuged for 15 minutes at 150×g at room temperature, and platelet-rich plasma (PRP) was removed. The remaining blood was centrifuged for 15 minutes at 1500×g at room temperature, and platelet-poor plasma (PPP) was removed. Samples were assayed on a aggregometer (PAP-4 Platelet Aggregation Profiler), using PPP as the blank (100% transmittance). 200 μL of PRP was added to each micro test tube, and transmittance was set to 0%. 20 μL of various agonists (ADP, collagen, arachidonate, epinephrine, thrombin) were added to each tube, and the aggregation profiles were plotted (% transmittance versus time). The results are expressed as % inhibition of agonist-induced platelet aggregation. For the IC50 evaluation, the test compounds were added at various concentrations prior to the activation of the platelets.
Ester prodrugs were preincubated (10^-3 M F.C.) with 100 IU/mL Porcine liver esterase (Sigma Chemical Co., St. Louis, Mo., #E-3128) for 2 hours at 37° C. Aliquots are then diluted in 0.1M Tris, pH 7.4, to the desired concentrations. Aliquots of 20 μl of the esterase pretreated prodrugs are added to 200 μl of human platelet rich plasma. Samples were placed in platelet profiler (aggregometer) for 8 minutes at 37° C., followed by the addition of 100 μM Adenosine Diphosphate, (Sigma Chemical Co., St. Louis, Mo., #A-6521), to induce platelet aggregation. Platelet aggregation was allowed to proceed for 5 minutes. Percent inhibition is calculated using percent aggregation in the presence of the test compound divided by percent aggregation of control, times 100. This value is subtracted from 100, yielding percent inhibition. Calculation of IC50 is performed on a Texas Instruments TI59 with an IC50 program.
Table A below sets forth the antiplatelet activity of representative compounds of the present invention. The indicated compounds were tested for their ability to inhibit platelet aggregation (using platelet rich plasma (PRP)). The IC50 value (the concentration of antagonist which inhibits platelet aggregation by 50% relative to a control lacking the antagonist) is shown. In Table 5 the IC50 values are expressed as: +++=IC50 of <10 μM; ++=IC50 of 10-50 μM; +=IC50 of 50-100 μM (μM=micromolar).
A word on the IC50: it is the midpoint of a concentration-inhibition curve. Consider `CCCCOC(=O)N[C@@H](CNC(=O)C[C@H]1CC(c2ccc(C(=N)N)cc2)=NO1)C(=O)OC` [Example 314B, Methyl-N^2-n-butyloxycarbonyl-N^3-[3-(4-amidinophenyl)isoxazolin-5(R)-ylacetyl]-(S)-2,3-diaminopropionate TFA salt], for which the IC50 is below 10 µM. On to `COC(=O)C(CNC(=O)CC1CC(c2ccc(C(=N)N)cc2)=NO1)NS(C)(=O)=O` (centres unmarked) [Example 323], for which the IC50 is below 10 µM.

On to `CCS(=O)(=O)NC(CNC(=O)CC1CC(c2ccc(C(=N)N)cc2)=NO1)C(=O)OC` (centres unmarked) [Example 324], for which the concentration for half-maximal inhibition (IC50) is below 10 µM.

Regarding `COC(=O)C(CNC(=O)CC1CC(c2ccc(C(=N)N)cc2)=NO1)NS(=O)(=O)c1ccccc1` (centres unmarked) [Example 326], the IC50 was below 10 µM. For the compound `COC(=O)[C@H](CNC(=O)CC1CC(c2ccc(C(=N)N)cc2)=NO1)NS(=O)(=O)c1ccc(C)cc1` (some centres unmarked) [Example 327], the IC50 was below 10 µM.

With `CCCC[C@H](CC(=O)OC)NC(=O)CC1CC(c2ccc(C(=N)N)cc2)=NO1` (stereo partly drawn) [Example 344, Methyl 3(R)-{5(R,S)-N-[3-(4-Amidinophenyl)isoxazolin-5-ylacetyl]amino}heptanoate], the IC50 was below 10 µM. As to `CCCCC(CC(=O)OCC)NC(=O)CC1CC(c2ccc(C(=N)N)cc2)=NO1` (centres unmarked) [Example 345], the IC50 was below 10 µM. `CCOC(=O)C[C@@H](CC(C)C)NC(=O)CC1CC(c2ccc(C(=N)N)cc2)=NO1` (stereo partly drawn) [Example 348, Ethyl 3(R)-{5(R,S)-N-[3-(4-amidinophenyl)isoxazolin-5-ylacetyl]amino}-5-methylhexanoate . trifluoroacetic acid salt]: the IC50 is below 10 µM.

Take `COC(=O)CC1CCCCN1C(=O)CC1CC(c2ccc(C(=N)N)cc2)=NO1` (centres unmarked) [Example 394]: the IC50 is below 10 µM.

Regarding `CCOC(=O)CC1CCCCN1C(=O)CC1CC(c2ccc(C(=N)N)cc2)=NO1` (centres unmarked) [Example 413], the IC50 is below 10 µM. With `CCOC(=O)CC1CCCCCN1C(=O)CC1CC(c2ccc(C(=N)N)cc2)=NO1` (centres unmarked) [Example 415], the IC50 is below 10 µM. For `N=C(N)c1ccc(C2=NOC(CC(=O)N[C@@H](CC(=O)O)C(=O)NCCc3ccccc3)C2)cc1` (stereo partly drawn) [Example 435, (S)-N^α -[3-(4-Amidinophenyl)-isoxazolin-5-(R,S)-ylacetyl]-α-aspart-N-(2-phenylethyl)amide, trifluoroacetic acid salt], the IC50 was below 10 µM. On to `CCOC(=O)CC(NC(=O)CC1CC(c2ccc(C(=N)N)cc2)=NO1)C(=O)OCC` (centres unmarked) [Example 439], for which the IC50 was below 10 µM. `COC(=O)C(CNC(=O)CC1CC(c2ccc(C(N)=NC(=O)OC(C)(C)C)cc2)=NO1)NC(=O)OCc1ccccc1` (centres unmarked) [Example 440]: the IC50 is below 10 µM. Still for that read-out and setting: the value for `COC(=O)CC(CCCc1ccccc1)NC(=O)CC1CC(c2ccc(C(=N)N)cc2)=NO1` (centres unmarked) [Example 446] was below 10 µM. Take `COC(=O)CC(CCc1ccncc1)NC(=O)CC1CC(c2ccc(C(=N)N)cc2)=NO1` (centres unmarked) [Example 450]: the 50% inhibitory concentration (IC50) was below 10 µM. Same read-out and setting: the value for `CCCCOC(=O)NC(CNC(=O)CC1CC(CCC2CCNCC2)=NO1)C(=O)OC` (centres unmarked) [Example 451] was below 10 µM; that for `COC(=O)CC(NC(=O)CC1CC(c2ccc(C(=N)N)cc2)=NO1)C(=O)NCCc1ccccc1` (centres unmarked) [Example 452] was below 10 µM; that for `COC(=O)CC(NC(=O)CC1CC(c2ccc(C(N)=NC(=O)OC(C)(C)C)cc2)=NO1)C(=O)N1CCN(Cc2ccccc2)CC1` (centres unmarked) [Example 453] was below 10 µM. Same read-out and setting: for `COC(=O)CC(NC(=O)CC1CC(c2ccc(C(=N)N)cc2)=NO1)C(=O)N(C)CCc1ccccc1` (centres unmarked) [Example 454] the value was below 10 µM.

For the compound `COC(=O)CC(NC(=O)CC1CC(c2ccc(C(=N)N)cc2)=NO1)C(=O)N1CCN(Cc2ccccc2)CC1` (centres unmarked) [Example 455], the IC50 was below 10 µM. For `COC(=O)CC(C#C[Si](C)(C)C)NC(=O)CC1CC(c2ccc(C(=N)N)cc2)=NO1` (centres unmarked) [Example 457], the IC50 was below 10 µM. For the compound `CCOC(=O)CC(NC(=O)CC1CC(c2ccc(C(=N)N)cc2)=NO1)C(=O)NCC12CC3CC(CC(C3)C1)C2` (centres unmarked) [Example 462], the IC50 is below 10 µM. Consider `COC(=O)CC(NC(=O)CC1CC(c2ccc(C(=N)N)cc2)=NO1)C(=O)N1CCCc2ccccc21` (centres unmarked) [Example 464], for which the IC50 is below 10 µM. As to `COC(=O)CC(NC(=O)CC1CC(c2ccc(C(=N)N)cc2)=NO1)C(=O)N1CCc2ccccc2C1` (centres unmarked) [Example 465], the IC50 is below 10 µM. On to `COC(=O)CC(NC(=O)CC1CC(c2ccc(C(=N)N)cc2)=NO1)C(=O)NC12CC3CC(CC(C3)C1)C2` (centres unmarked) [Example 466], for which the IC50 was below 10 µM. On the same count and under the same terms, for `COC(=O)CC(NC(=O)CC1CC(c2ccc(C(=N)N)cc2)=NO1)C(=O)NC1C2CC3CC(C2)CC1C3` (centres unmarked) [Example 467] the value was below 10 µM; for `COC(=O)CC(NC(=O)CC1CC(c2ccc(C(=N)N)cc2)=NO1)C(=O)N1CCSCC1` (centres unmarked) [Example 468], below 10 µM; for `COC(=O)CC(NC(=O)CC1CC(c2ccc(C(=N)N)cc2)=NO1)C(=O)N1CCSC1` (centres unmarked) [Example 469], below 10 µM. Still for that read-out and setting: for `CCCCOc1ccc(S(=O)(=O)NC(CNC(=O)CC2CC(c3ccc(C(=N)N)cc3)=NO2)C(=O)OC)cc1` (centres unmarked) [Example 471] the value was below 10 µM; for `COC(=O)C(CNC(=O)CC1CC(c2ccc(C(=N)N)cc2)=NO1)NS(=O)(=O)c1cccs1` (centres unmarked) [Example 472], below 10 µM.

With `COC(=O)[C@H](CNC(=O)CC1CC(c2ccc(C(=N)N)cc2)=NO1)NS(=O)(=O)c1cccc(C)c1` (stereo partly drawn) [Example 473A, Methyl N^2-3-methylphenylsulfonyl-N^3-[3-(4-amidinophenyl)isoxazolin-5R-ylacetyl]-S-2,3-diaminopropionate trifluoroacetic acid salt], the IC50 was below 10 µM.

On to `COC(=O)C(CNC(=O)CC1CC(c2ccc(C(=N)N)cc2)=NO1)NS(=O)(=O)c1cccc(C)c1` (centres unmarked) [Example 473], for which the IC50 is below 10 µM. Same read-out and setting: the value for `COC(=O)C(CNC(=O)CC1CC(c2ccc(C(=N)N)cc2)=NO1)NS(=O)(=O)c1ccc(I)cc1` (centres unmarked) [Example 474] was below 10 µM; that for `COC(=O)C(CNC(=O)CC1CC(c2ccc(C(=N)N)cc2)=NO1)NS(=O)(=O)c1cccc(C(F)(F)F)c1` (centres unmarked) [Example 475] was below 10 µM; that for `COC(=O)C(CNC(=O)CC1CC(c2ccc(C(=N)N)cc2)=NO1)NS(=O)(=O)c1cccc(Cl)c1` (centres unmarked) [Example 476] was below 10 µM. With `COC(=O)c1ccccc1S(=O)(=O)NC(CNC(=O)CC1CC(c2ccc(C(=N)N)cc2)=NO1)C(=O)OC` (centres unmarked) [Example 477], the half-maximal inhibitory concentration (IC50) was below 10 µM. `COC(=O)C(CNC(=O)CC1CC(c2ccc(C(=N)N)cc2)=NO1)NS(=O)(=O)c1c(C)cc(C)cc1C` (centres unmarked) [Example 478]: the IC50 was below 10 µM. The same measure, in the same setting: for `COC(=O)C(CNC(=O)CC1CC(c2ccc(C(=N)N)cc2)=NO1)NS(=O)(=O)c1ccccc1Cl` (centres unmarked) [Example 479] the value was below 10 µM.

In the case of `COC(=O)C(CNC(=O)CC1CC(c2ccc(C(=N)N)cc2)=NO1)NS(=O)(=O)c1ccccc1C(F)(F)F` (centres unmarked) [Example 480], the IC50 was below 10 µM. As for `COC(=O)C(CNC(=O)CC1CC(c2ccc(C(=N)N)cc2)=NO1)NS(=O)(=O)c1ccc(C(F)(F)F)cc1` (centres unmarked) [Example 481], the IC50 was below 10 µM. Regarding `COC(=O)C(CNC(=O)CC1CC(c2ccc(C(=N)N)cc2)=NO1)NS(=O)(=O)c1ccccc1F` (centres unmarked) [Example 482], the IC50 was below 10 µM. For the compound `COC(=O)C(CNC(=O)CC1CC(c2ccc(C(=N)N)cc2)=NO1)NS(=O)(=O)c1ccc(F)cc1` (centres unmarked) [Example 483], the IC50 was below 10 µM.

Still in this experiment, the particulars now being: Platelet, without esterase, read-out: Platelet Aggregation Assay IC50 (without esterase).
With `O=C(O)CCCN1C(=O)CC2(CC(CCCC3CCNCC3)=NO2)C1=O` (centres unmarked) [Example 373], the half-maximal inhibitory concentration (IC50) was in the range of 10 to 50 µM. On the same count and under the same terms, the value for `N=C(N)c1ccc(C2=NOC(CC(=O)N3CCCCC3CC(=O)O)C2)cc1` [Example 375, 2-(R,S)-2-Carboxymethyl-1-{5-(R,S)-N-[3-(4-amidinophenyl)isoxazolin-5-ylacetyl]}piperidine] was below 10 µM; that for `N=C(N)c1ccc(C2=NOC(CC(=O)NC(CC(=O)O)C(=O)NCC34CC5CC(CC(C5)C3)C4)C2)cc1` (centres unmarked) [Example 463] was below 10 µM.

Staying with this experiment, now noted: preincubated with 100 IU/mL porcine liver esterase 2 hours at 37° C., 100 μM ADP, read-out: Platelet Aggregation Assay IC50 (with esterase).
On to `COC(=O)[C@H](CNC(=O)CC1CC(c2ccc(C(=N)N)cc2)=NO1)NS(=O)(=O)c1cccc(C)c1` (stereo partly drawn) [Example 473B, Methyl N^2-3-methylphenylsulfonyl-N^3-[3-(4-amidinophenyl)-5S-ylacetyl]-S-2,3-diaminopropionate trifluoroacetic acid salt], for which the IC50 was below 10 µM.
